The test concerns T1, FC rutinosidase.
T1 construct: gene f3g; native, purified from dehulled seeds (Q-Sepharose, Superdex 200, Mono Q twice); 58,400 +/- 2700 Da by gel filtration; single isozyme in native-PAGE
Briefly: UPLC of released quercetin; Lineweaver-Burk. It counts as biochemical, Fagopyrum cymosum. The settings on record: 50 mM acetate-LiOH pH 5.0, 20% (v/v) methanol, 25 °C (standard assay). An excerpt: UPLC of released quercetin; Lineweaver-Burk on FC rutinosidase

Structures are written as SMILES.

With `C[C@@H]1O[C@@H](OC[C@H]2O[C@@H](Oc3c(-c4ccc(O)c(O)c4)oc4cc(O)cc(O)c4c3=O)[C@H](O)[C@@H](O)[C@@H]2O)[C@H](O)[C@H](O)[C@H]1O` [rutin], the Km – broadly, the substrate concentration at which the rate is half of its maximum – worked out at 367 ± 23.5 µM.

Source of the values: article PMC10093837, “Rutin Concentration and Characterization of Rutinosidase in Perennial Buckwheat (Fagopyrum cymosum) and Its Application in Foods” (Foods, 2023).
